Data from patent US6426204B1, “Method for detecting candida infection” (priority 1991, dated 2002).

Target: T1, C. tropicalis D-arabinitol dehydrogenase (Candida tropicalis, UniProt P50166)
T1 construct: endogenous in cells
Experiment: Specificity of the fluorogenic D-arabinitol assay (reactivity of sugars and sugar alcohols)
Format: biochemical
Conditions: for Relative Reactivity: relative to D-arabinitol
Protocol: Human serum was diluted 1:3 (v/v) with 10 mmol/L citrate (pH 4.0), placed in a boiling water bath for 10 min, and then centrifuged at 10,000×g for 10 min to remove precipitated material. The supernatant was used as the sample. Reaction mixtures (vol.=0.4 mL) contained 0.3 mL of sample, 1 mmol/L NAD^+, 4 mmol/L Mg^2+, 0.35 IU C. tropicalis D-arabinitol dehydrogenase prepared as described in Example 1, and 0.1 mol/L Tris (pH 9.5). Incubation was for 15 min at room temperature to promote the D-arabinitol dehydrogenase-catalyzed oxidation of D-arabinitol with concomitant reduction of NAD^+ to NADH. This initial incubation stage was terminated by reducing the pH of the reaction mixture to 5.8 with 0.03 mL 1.0 mol/L citrate (pH 3.6). Resazurin (12.5 μmol/L) and diaphorase (0.15 IU) were then added, and the sample was reincubated at room temperature to promote the diaphorase-catalyzed utilization of NADH (which had accumulated in the initial incubation stage) for the reduction of resazurin to resorufin. Formation of the latter was monitored fluorometrically (Excitation=560 nm, Emission=580 nm) using a Perkin-Elmer fluorescence spectrophotometer, Model #650-40, and was complete within 30 sec.
A series of sugars and sugar alcohols normally present in human serum were assessed for reactivity in the fluorometric assay. Of the compounds examined, significant reactivity relative to that observed with an equimolar concentration of D-arabinitol was found only with xylitol (3.3%). D-glucose at concentrations as great as 5.0 mmol/L was not utilized as “a” substrate.
Assays were performed as described in Example 4 except the sample contained, instead of the boiled serum supernatant, the indicated compound in PBS/10 mmol/L citrate, pH 4.0 (1:3, v/v).

[1] = compound 500 μmol/L in PBS/10 mmol/L citrate pH 4.0
[2] = compound 5 μmol/L in PBS/10 mmol/L citrate pH 4.0

T1 sequence (P50166 whole entry): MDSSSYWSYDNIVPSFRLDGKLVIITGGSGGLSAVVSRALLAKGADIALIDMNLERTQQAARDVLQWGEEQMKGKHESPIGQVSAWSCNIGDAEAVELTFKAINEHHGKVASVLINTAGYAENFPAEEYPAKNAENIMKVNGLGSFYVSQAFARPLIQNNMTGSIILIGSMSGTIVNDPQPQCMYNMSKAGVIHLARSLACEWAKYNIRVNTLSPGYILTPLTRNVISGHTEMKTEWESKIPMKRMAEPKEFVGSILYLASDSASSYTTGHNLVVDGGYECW

O=C[C@H](O)[C@@H](O)[C@@H](O)[C@H](O)CO [D-galactose]
Relative Reactivity [1]: 0.9%

OC[C@H](O)C(O)[C@@H](O)CO [L-arabinitol]
Relative Reactivity [2]: 0%

OC[C@@H](O)[C@H](O)[C@@H](O)CO [xylitol]
Relative Reactivity [2]: 3.3%

OC[C@@H](O)C(O)[C@H](O)CO [D-arabinitol]
Relative Reactivity [2]: 100%

OC[C@@H](O)[C@@H](O)[C@H](O)[C@H](O)CO [D-mannitol]
Relative Reactivity [2]: 0%

OC[C@@H](O)[C@@H](O)CO [erythritol]
Relative Reactivity [2]: 0%

OC[C@@H](O)[C@H](O)[C@H](O)[C@@H](O)CO [galactitol]
Relative Reactivity [2]: 0.6%

OC[C@@H](O)[C@H](O)CO [threitol]
Relative Reactivity [2]: 0.1%

O=C(CO)[C@@H](O)[C@H](O)[C@H](O)CO [D-fructose]
Relative Reactivity [1]: 0%

OC[C@@H](O)[C@@H](O)[C@@H](O)CO [ribitol]
Relative Reactivity [2]: 0%

O=C[C@@H](O)[C@@H](O)[C@H](O)[C@H](O)CO [D-mannose]
Relative Reactivity [1]: 0.3%

OC[C@@H](O)[C@@H](O)[C@H](O)[C@@H](O)CO [D-sorbitol]
Relative Reactivity [2]: 0.1%

O=C[C@H](O)[C@@H](O)[C@H](O)[C@H](O)CO [D-glucose]
Relative Reactivity (compound 5000 μmol/L in PBS/10 mmol/L citrate pH 4.0): 0%
Utilization as substrate in the fluorometric assay (concentrations as great as 5.0 mmol/L): not utilized
